Among the data in US20250136586A1, “Substituted 7-(Pyrimidin-4-yl)Quinolin-4(1H)-One Compounds as Cyclin Dependent Kinase Inhibitors” (BeiGene, Ltd., priority 2022, published 2025) are IC50 values, retold here.

The target in one experiment is CDK4/Cyclin D1 (Homo sapiens (Human), UniProt P11802). Nature of the experiment: TR-FRET kinase inhibition assay, CDK4/Cyclin D1. In kind it is biochemical. As to conditions: 1 mM ATP, 0.15 μM Rb (Ser780)-biotin substrate, read-out: CDK4D1 IC50. The method, then:
Compounds disclosed herein were tested for inhibition of CDK4/Cyclin D1 or CDK6/Cyclin D3 kinase in an assay based on the time-resolved fluorescence-resonance energy transfer (TR-FRET) methodology. […] The kinase was incubated with compound for 60 minutes at room temperature and the reaction was initiated by the addition of ATP and Rb (Ser780)-biotin substrate. After reaction at room temperature for 120 minutes, an equal volume of stop/detection solution was added according to the manufacture's instruction (Cisbio Bioassays). The stop/detection solution contained Streptavidin-XL665 and Anti-pRb (Ser780) mAb-Eu Cryptate in Detection buffer (Cisbio Bioassays). […] The inhibition percentage of CDK4/Cyclin D1 or CDK6/Cyclin D3 kinase activity in presence of increasing concentrations of compounds was calculated based on the ratio of fluorescence at 665 nm to that at 620 nm. The IC50 for each compound was derived from fitting the data to the four-parameter logistic equation by Dotmatics.
In general terms: TR-FRET usually uses a lanthanide donor and a delayed reading to cut background.

In a further experiment the target is CDK6/Cyclin D3 (Homo sapiens (Human), UniProt Q00534). Put plainly: TR-FRET kinase inhibition assay, CDK6/Cyclin D3. Format: biochemical. As to conditions: 1 mM ATP, 0.15 μM Rb (Ser780)-biotin substrate, read-out: CDK6D3 IC50. The method, then: Compounds disclosed herein were tested for inhibition of CDK4/Cyclin D1 or CDK6/Cyclin D3 kinase in an assay based on the time-resolved fluorescence-resonance energy transfer (TR-FRET) methodology. The assay was carried out in 384-well low volume black plates in a reaction mixture containing CDK4/Cyclin D1 or CDK6/Cyclin D3, 1 mM ATP, 0.15 μM Rb (Ser780)-biotin substrate and 0-10 μM compound in buffer containing 50 mM HEPES pH7.0, 0.02% NaN3, 0.01% BSA, 0.1 mM Orthovanadate, 50 mM MgCl2, 1 mM DTT and 0.005% Tween-20. The kinase was incubated with compound for 60 minutes at room temperature and the reaction was initiated by the addition of ATP and Rb (Ser780)-biotin substrate. After reaction at room temperature for 120 minutes, an equal volume of stop/detection solution was added according to the manufacture's instruction (Cisbio Bioassays). The stop/detection solution contained Streptavidin-XL665 and Anti-pRb (Ser780) mAb-Eu Cryptate in Detection buffer (Cisbio Bioassays). Plates were incubated at room temperature for 60 minutes, and the TR-FRET signals (ex337 nm, em665 nm/620 nm) were recorded on a PHERAstar FSX plate reader (BMG Labtech). The inhibition percentage of CDK4/Cyclin D1 or CDK6/Cyclin D3 kinase activity in presence of increasing concentrations of compounds was calculated based on the ratio of fluorescence at 665 nm to that at 620 nm. The IC50 for each compound was derived from fitting the data to the four-parameter logistic equation by Dotmatics.

Structures are written as SMILES.

Sequence of CDK4/Cyclin D1 (P11802 whole entry): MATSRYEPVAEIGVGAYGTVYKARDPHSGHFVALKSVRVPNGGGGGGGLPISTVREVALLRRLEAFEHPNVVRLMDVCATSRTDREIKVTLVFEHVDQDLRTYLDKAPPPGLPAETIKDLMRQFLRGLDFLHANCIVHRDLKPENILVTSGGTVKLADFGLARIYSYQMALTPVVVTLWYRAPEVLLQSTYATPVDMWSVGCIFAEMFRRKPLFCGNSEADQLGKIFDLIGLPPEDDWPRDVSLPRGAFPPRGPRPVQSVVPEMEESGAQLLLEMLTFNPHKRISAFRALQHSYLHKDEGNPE
Sequence of CDK4/Cyclin D1 (P24385 whole entry partner): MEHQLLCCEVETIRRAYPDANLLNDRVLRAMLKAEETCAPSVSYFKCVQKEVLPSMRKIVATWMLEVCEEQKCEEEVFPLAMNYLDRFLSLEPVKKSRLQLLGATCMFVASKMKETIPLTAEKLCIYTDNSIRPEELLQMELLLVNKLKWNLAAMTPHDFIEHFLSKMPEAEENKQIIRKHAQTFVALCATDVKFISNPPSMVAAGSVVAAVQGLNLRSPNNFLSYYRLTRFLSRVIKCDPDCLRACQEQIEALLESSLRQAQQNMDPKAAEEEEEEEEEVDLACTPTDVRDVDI
Sequence of CDK6/Cyclin D3 (Q00534 whole entry): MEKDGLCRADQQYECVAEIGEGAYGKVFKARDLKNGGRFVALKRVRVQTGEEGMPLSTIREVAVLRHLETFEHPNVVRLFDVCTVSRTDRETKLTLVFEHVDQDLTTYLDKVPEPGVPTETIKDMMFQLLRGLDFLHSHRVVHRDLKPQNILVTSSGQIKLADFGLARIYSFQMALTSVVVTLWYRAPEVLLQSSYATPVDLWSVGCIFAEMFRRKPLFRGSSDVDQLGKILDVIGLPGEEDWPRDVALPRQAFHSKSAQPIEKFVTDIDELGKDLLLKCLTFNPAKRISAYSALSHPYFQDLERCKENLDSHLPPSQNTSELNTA
Sequence of CDK6/Cyclin D3 (P30281 whole entry partner): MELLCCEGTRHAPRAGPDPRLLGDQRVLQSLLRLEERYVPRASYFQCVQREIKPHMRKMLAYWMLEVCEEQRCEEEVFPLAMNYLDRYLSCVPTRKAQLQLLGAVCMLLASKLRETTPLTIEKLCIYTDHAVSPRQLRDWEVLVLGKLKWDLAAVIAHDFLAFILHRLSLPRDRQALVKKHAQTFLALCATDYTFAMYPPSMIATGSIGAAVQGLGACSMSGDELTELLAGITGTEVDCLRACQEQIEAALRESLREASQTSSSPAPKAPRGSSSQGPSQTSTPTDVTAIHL

The IC50 is the concentration needed to halve the response being measured. On to `CC(C)n1c(CN2CCOCC23CC3)cc(=O)c2ccc(-c3nc(N[C@@H]4CCOC[C@H]4O)ncc3F)cc21` [Example 73, 2-((7-oxa-4-azaspiro[2.5]octan-4-yl)methyl)-7-(5-fluoro-2-(((3S,4R)-3-hydroxytetrahydro-2H-pyran-4-yl)amino)pyrimidin-4-yl)-1-isopropylquinolin-4(1H)-one], for which the IC50 worked out at 7.5 nM at CDK4/Cyclin D1 and 225 nM at CDK6/Cyclin D3.

With `CC(C)n1c(CN2C[C@@H]3C[C@H]2CO3)cc(=O)c2ccc(-c3nc(N[C@@H]4CCOC[C@H]4O)ncc3F)cc21` [Example 34, 2-(((1S,4S)-2-oxa-5-azabicyclo[2.2.1]heptan-5-yl)methyl)-7-(5-fluoro-2-(((3S,4R)-3-hydroxytetrahydro-2H-pyran-4-yl)amino)pyrimidin-4-yl)-1-isopropylquinolin-4(1H)-one], the IC50 came out at 10 nM on CDK4/Cyclin D1 and 430 nM on CDK6/Cyclin D3.

For `CC(C)n1c(CN2CCC(C)(C)C2)cc(=O)c2ccc(-c3nc(N[C@@H]4CCOC[C@H]4O)ncc3F)cc21` [Example 42, 2-((3,3-dimethylpyrrolidin-1-yl)methyl)-7-(5-fluoro-2-(((3S,4R)-3-hydroxytetrahydro-2H-pyran-4-yl)amino)pyrimidin-4-yl)-1-isopropylquinolin-4(1H)-one], the concentration for half-maximal inhibition (IC50) on CDK4/Cyclin D1 was found to be 15 nM; at CDK6/Cyclin D3, 645 nM.

For `CC(C)n1c(CNc2cnn(C)c2)cc(=O)c2ccc(-c3nc(N[C@@H]4CCOC[C@H]4O)ncc3F)cc21` [Example 78, 7-(5-fluoro-2-(((3S,4R)-3-hydroxytetrahydro-2H-pyran-4-yl)amino)pyrimidin-4-yl)-1-isopropyl-2-(((1-methyl-1H-pyrazol-4-yl)amino)methyl)quinolin-4(1H)-one], the figures for the half-maximal inhibitory concentration (IC50) on CDK4/Cyclin D1 and at CDK6/Cyclin D3 were 22 nM and 352 nM, respectively.

For the compound `CNC(=O)c1c(Cl)c(=O)c2ccc(-c3nc(N[C@@H]4CCOC[C@H]4O)ncc3F)cc2n1C(C)C` [Example 23, 3-chloro-7-(5-fluoro-2-(((3S,4R)-3-hydroxytetrahydro-2H-pyran-4-yl)amino)pyrimidin-4-yl)-1-isopropyl-N-methyl-4-oxo-1,4-dihydroquinoline-2-carboxamide], the IC50 was determined as 53 nM on CDK4/Cyclin D1 and 445 nM at CDK6/Cyclin D3.

On to `CC(C)n1c(CN2CC[C@H](O)C2)cc(=O)c2ccc(-c3nc(N[C@@H]4CCOC[C@H]4O)ncc3F)cc21` [Example 86, 7-(5-fluoro-2-(((3S,4R)-3-hydroxytetrahydro-2H-pyran-4-yl)amino)pyrimidin-4-yl)-2-(((S)-3-hydroxypyrrolidin-1-yl)methyl)-1-isopropylquinolin-4(1H)-one], for which the results for the half-inhibitory concentration (IC50) at CDK4/Cyclin D1 and at CDK6/Cyclin D3 were 21 nM and 777 nM, respectively.

For `CC(C)n1c(CNC2CC2)cc(=O)c2ccc(-c3nc(N[C@@H]4CCOC[C@H]4O)ncc3F)cc21` [Example 48, 2-((cyclopropylamino)methyl)-7-(5-fluoro-2-(((3S,4R)-3-hydroxytetrahydro-2H-pyran-4-yl)amino)pyrimidin-4-yl)-1-isopropylquinolin-4(1H)-one], the IC50 amounted to 9.1 nM at CDK4/Cyclin D1 and 209 nM at CDK6/Cyclin D3.

Consider `CC(C)n1c(CN2CCC(F)CC2)cc(=O)c2ccc(-c3nc(N[C@@H]4CCOC[C@H]4O)ncc3F)cc21` [Example 99, 7-(5-fluoro-2-(((3S,4R)-3-hydroxytetrahydro-2H-pyran-4-yl)amino)pyrimidin-4-yl)-2-((4-fluoropiperidin-1-yl)methyl)-1-isopropylquinolin-4(1H)-one], for which the 50% inhibitory concentration (IC50) on CDK4/Cyclin D1 came to 17 nM; at CDK6/Cyclin D3 it was 561 nM.

As to `CC(C)n1c(CN2C[C@H]3C[C@@H]2CO3)cc(=O)c2ccc(-c3nc(N[C@@H]4CCOC[C@H]4O)ncc3F)cc21` [Example 33, 2-(((1R,4R)-2-oxa-5-azabicyclo[2.2.1]heptan-5-yl)methyl)-7-(5-fluoro-2-(((3S,4R)-3-hydroxytetrahydro-2H-pyran-4-yl)amino)pyrimidin-4-yl)-1-isopropylquinolin-4(1H)-one], the IC50 is 12 nM on CDK4/Cyclin D1 and 324 nM on CDK6/Cyclin D3.

For the compound `Cc1c(CN2CCCC3(CCNC3=O)C2)n(C(C)C)c2cc(-c3nc(N[C@@H]4CCOC[C@H]4O)ncc3F)ccc2c1=O` (stereo partly drawn) [Example 124, 7-((7-(5-fluoro-2-(((3S,4R)-3-hydroxytetrahydro-2H-pyran-4-yl)amino)pyrimidin-4-yl)-1-isopropyl-3-methyl-4-oxo-1,4-dihydroquinolin-2-yl)methyl)-2,7-diazaspiro[4.5]decan-1-one], the figures for the IC50 on CDK4/Cyclin D1 and on CDK6/Cyclin D3 were 5 nM and 230 nM, respectively.

Consider `CC(C)n1c(CN2CCS(=O)(=O)CC2)cc(=O)c2ccc(-c3nc(N[C@@H]4CCOC[C@H]4O)ncc3F)cc21` [Example 83, 2-((1,1-dioxidothiomorpholino)methyl)-7-(5-fluoro-2-(((3S,4R)-3-hydroxytetrahydro-2H-pyran-4-yl)amino)pyrimidin-4-yl)-1-isopropylquinolin-4(1H)-one], for which the 50% inhibitory concentration (IC50) was found to be 32 nM on CDK4/Cyclin D1 and 928 nM at CDK6/Cyclin D3.

On to `CC(C)n1c(CN2CCC(C)(O)CC2)cc(=O)c2ccc(-c3nc(N[C@@H]4CCOC[C@H]4O)ncc3F)cc21` [Example 38, 7-(5-fluoro-2-(((3S,4R)-3-hydroxytetrahydro-2H-pyran-4-yl)amino)pyrimidin-4-yl)-2-((4-hydroxy-4-methylpiperidin-1-yl)methyl)-1-isopropylquinolin-4(1H)-one], for which the IC50 on CDK4/Cyclin D1 was found to be 24 nM; at CDK6/Cyclin D3, 888 nM.

In the case of `CC(C)n1c(CO)cc(=O)c2ccc(-c3nc(N[C@@H]4CCOC[C@H]4O)ncc3F)cc21` [Example 17, 7-(5-fluoro-2-(((3S,4R)-3-hydroxytetrahydro-2H-pyran-4-yl)amino)pyrimidin-4-yl)-2-(hydroxymethyl)-1-isopropylquinolin-4(1H)-one], the IC50 at CDK4/Cyclin D1 turned out to be 7.5 nM; on CDK6/Cyclin D3, 120 nM.

`CC(C)n1c(CN2CCC[C@@]3(CCNC3=O)C2)cc(=O)c2ccc(-c3nc(N[C@@H]4CCOC[C@H]4O)ncc3F)cc21` [Example 104, (R)-7-((7-(5-fluoro-2-(((3S,4R)-3-hydroxytetrahydro-2H-pyran-4-yl)amino)pyrimidin-4-yl)-1-isopropyl-4-oxo-1,4-dihydroquinolin-2-yl)methyl)-2,7-diazaspiro[4.5]decan-1-one]: the IC50 at CDK4/Cyclin D1 worked out at 24 nM; on CDK6/Cyclin D3, 139 nM.

On to `CC(C)n1c(CN2CCC[C@@H](O)C2)cc(=O)c2ccc(-c3nc(N[C@@H]4CCOC[C@H]4O)ncc3F)cc21` [Example 57, 7-(5-fluoro-2-(((3S,4R)-3-hydroxytetrahydro-2H-pyran-4-yl)amino)pyrimidin-4-yl)-2-(((R)-3-hydroxypiperidin-1-yl)methyl)-1-isopropylquinolin-4(1H)-one], for which the IC50 on CDK4/Cyclin D1 is 16 nM; at CDK6/Cyclin D3 it was 352 nM.

Take `CC(C)n1c(CN2CCC[C@@]3(CCN(C)C3=O)C2)cc(=O)c2ccc(-c3nc(N[C@@H]4CCOC[C@H]4O)ncc3F)cc21` [Example 51, (R)-7-((7-(5-fluoro-2-(((3S,4R)-3-hydroxytetrahydro-2H-pyran-4-yl)amino)pyrimidin-4-yl)-1-isopropyl-4-oxo-1,4-dihydroquinolin-2-yl)methyl)-2-methyl-2,7-diazaspiro[4,5]decan-1-one]: the figures for the half-inhibitory concentration (IC50) at CDK4/Cyclin D1 and on CDK6/Cyclin D3 were 54 nM and 648 nM, respectively.

`CNC(=O)c1cc(=O)c2ccc(-c3nc(N[C@@H]4CCOC[C@H]4O)ncc3F)cc2n1C(C)C` [Example 7, 7-(5-fluoro-2-(((3S,4R)-3-hydroxytetrahydro-2H-pyran-4-yl)amino)pyrimidin-4-yl)-1-isopropyl-N-methyl-4-oxo-1,4-dihydroquinoline-2-carboxamide]: the IC50 was found to be 14 nM at CDK4/Cyclin D1 and 574 nM at CDK6/Cyclin D3.

For `CC(C)n1c(C2CCCN2)cc(=O)c2ccc(-c3nc(N[C@@H]4CCOC[C@H]4O)ncc3F)cc21` (stereo partly drawn) [Example 388, 7-(5-fluoro-2-(((3S,4R)-3-hydroxytetrahydro-2H-pyran-4-yl)amino)pyrimidin-4-yl)-1-isopropyl-2-(pyrrolidin-2-yl)quinolin-4(1H)-one], the half-maximal inhibitory concentration (IC50) stood at 10 nM on CDK4/Cyclin D1 and 450 nM at CDK6/Cyclin D3.

Take `Cc1c(CN[C@H]2CCOC2)n(C(C)C)c2cc(-c3nc(N[C@@H]4CCOC[C@H]4O)ncc3F)ccc2c1=O` [Example 113, 7-(5-fluoro-2-(((3S,4R)-3-hydroxytetrahydro-2H-pyran-4-yl)amino)pyrimidin-4-yl)-1-isopropyl-3-methyl-2-((((S)-tetrahydrofuran-3-yl)amino)methyl)quinolin-4(1H)-one]: the concentration for half-maximal inhibition (IC50) came to 17 nM at CDK4/Cyclin D1 and 663 nM at CDK6/Cyclin D3.
